The text below walks through data of ChEMBL document CHEMBL3045369 (J Neurochem, 2000).

One may read the IC50 as the midpoint of a concentration-inhibition curve.

The source made the active and inactive calls. The calls are words filed in the database; no cut-off is given here.

The nature of experiment [1]: Displacement of [3H]IMI from nicotinic acetylcholine receptor in Myzus persicae (green peach aphid) whole body membrane after 90 min by filter binding assay. A general note: In a radioligand displacement assay an active substance lowers the binding of a labelled ligand.
Experiment [2] deals with T1, Acetylcholine receptor subunit beta-like 2 (Drosophila melanogaster, UniProt P25162).
T1 sequence (P25162 whole entry): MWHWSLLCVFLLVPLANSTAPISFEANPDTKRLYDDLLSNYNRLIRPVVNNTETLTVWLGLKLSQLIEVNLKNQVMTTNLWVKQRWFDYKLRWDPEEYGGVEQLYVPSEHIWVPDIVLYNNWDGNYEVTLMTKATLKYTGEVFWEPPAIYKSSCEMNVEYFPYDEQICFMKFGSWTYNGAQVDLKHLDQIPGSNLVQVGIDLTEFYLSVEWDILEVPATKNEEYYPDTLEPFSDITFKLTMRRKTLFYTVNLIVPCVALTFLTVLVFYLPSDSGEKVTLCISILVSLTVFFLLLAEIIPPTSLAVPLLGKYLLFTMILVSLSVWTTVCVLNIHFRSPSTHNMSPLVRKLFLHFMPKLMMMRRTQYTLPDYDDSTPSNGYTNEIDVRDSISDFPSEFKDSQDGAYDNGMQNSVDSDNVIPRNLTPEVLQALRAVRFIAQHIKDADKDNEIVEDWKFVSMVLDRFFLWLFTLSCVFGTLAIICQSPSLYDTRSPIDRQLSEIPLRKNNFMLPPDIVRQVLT
Briefly: Displacement of [3H]IMI from nicotinic acetylcholine receptor in Drosophila melanogaster head membrane after 90 min by filter binding assay.

Experiment [3] addresses T2, Nicotinic acetylcholine receptor alpha 5 subunit (Musca domestica, UniProt A9XFY4).
T2 sequence (A9XFY4 whole entry): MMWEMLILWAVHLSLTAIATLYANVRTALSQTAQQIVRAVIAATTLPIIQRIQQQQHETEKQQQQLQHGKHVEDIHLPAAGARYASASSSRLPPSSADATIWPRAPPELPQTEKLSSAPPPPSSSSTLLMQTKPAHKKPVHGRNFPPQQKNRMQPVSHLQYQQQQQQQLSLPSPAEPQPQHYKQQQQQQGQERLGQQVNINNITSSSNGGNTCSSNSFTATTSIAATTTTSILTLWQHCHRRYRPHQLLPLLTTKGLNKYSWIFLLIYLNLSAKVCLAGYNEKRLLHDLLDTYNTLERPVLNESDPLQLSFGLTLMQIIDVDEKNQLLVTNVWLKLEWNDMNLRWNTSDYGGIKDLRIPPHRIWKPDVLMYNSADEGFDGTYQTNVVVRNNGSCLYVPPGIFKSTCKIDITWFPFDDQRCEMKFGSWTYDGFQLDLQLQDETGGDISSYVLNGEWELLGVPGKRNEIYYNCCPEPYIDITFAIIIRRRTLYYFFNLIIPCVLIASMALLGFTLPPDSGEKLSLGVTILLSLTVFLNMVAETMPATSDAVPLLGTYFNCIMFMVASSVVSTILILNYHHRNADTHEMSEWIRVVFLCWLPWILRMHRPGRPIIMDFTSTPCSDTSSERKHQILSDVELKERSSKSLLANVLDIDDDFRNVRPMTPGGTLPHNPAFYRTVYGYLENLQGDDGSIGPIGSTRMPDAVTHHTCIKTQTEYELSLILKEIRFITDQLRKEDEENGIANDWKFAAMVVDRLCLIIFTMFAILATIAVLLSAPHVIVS
The experiment in a line: Displacement of [3H]IMI from nicotinic acetylcholine receptor in Musca domestica (house fly) head membrane after 90 min by filter binding assay.

The next experiment has as its system Myzus persicae. The experiment in a line: Competitive inhibition of nicotinic acetylcholine receptor in Myzus persicae (green peach aphid) whole body membrane using [3H]IMI as substrate incubated for 5 min prior to substrate addition measured after 90 min by Sctachard plot analysis.
In experiment [4] the target is T3, Acetylcholine receptor subunit beta-like 2 (Drosophila melanogaster) (UniProt P25162).
T3 sequence (whole entry): T1 sequence (P25162 whole entry)
Briefly: Competitive inhibition of nicotinic acetylcholine receptor in Drosophila melanogaster head membrane using [3H]IMI as substrate incubated for 5 min prior to substrate addition measured after 90 min by Sctachard plot analysis.

As to `N#C/N=C1\SCCN1Cc1ccc(Cl)nc1` [THIACLOPRID], the IC50 in experiment [1] came out at 3.4 nM; in experiment [2] it was 7.5 nM.
In the case of `O=[N+]([O-])C=C1NCCCS1`, the IC50 in experiment [1] was determined as 3500 nM; in experiment [2] it was 4700 nM.
With `CN/C(=N\[N+](=O)[O-])NCc1cnc(Cl)s1` [CLOTHIANIDINE], the IC50 in experiment [3] turned out to be 1.8 nM; in experiment [1] it was 9.2 nM; in experiment [2] it was 2.2 nM. Moreover, the inhibition result (in the experiment on Myzus persicae; in experiment [4]) was “Active” throughout.
`C/C(=N\C#N)N(C)Cc1cnc(Cl)s1`: the IC50 turned out to be 65 nM in experiment [1] and 154 nM in experiment [2].
For the molecule `C/N=C(\NCc1ccc(Cl)nc1)N[N+](=O)[O-]`, the IC50 in experiment [3] turned out to be 7.1 nM; in experiment [1] it was 15 nM; in experiment [2] it was 7.4 nM.
Turning to `O=[N+]([O-])/N=C1\NCOCN1Cc1ccc(Cl)nc1`, the IC50 in experiment [3] is 14 nM; in experiment [1], 13 nM; in experiment [2], 22 nM.
`CCN(Cc1cnc(Cl)s1)/C(=C/[N+](=O)[O-])NC`: the IC50 was 150 nM in experiment [1] and 160 nM in experiment [2].
Consider `O=[N+]([O-])/N=C1\NCCN1Cc1ccc(Cl)nc1` [IMIDACLOPRID], for which the figures for the IC50 in experiment [3], in experiment [1] and in experiment [2] were 2.6 nM, 3.1 nM and 2.3 nM, respectively.
Turning to `CCN(Cc1ccc(Cl)nc1)/C(=C/[N+](=O)[O-])NC` [NITENPYRAM], the IC50 is 21 nM in experiment [1] and 11 nM in experiment [2].
Consider `O=[N+]([O-])/N=C1\NCOCN1Cc1cnc(Cl)s1` [DESMETHYLTHIAMETHOXAM], for which the half-maximal inhibitory concentration (IC50) came to 16 nM in experiment [3], 10 nM in experiment [1] and 20 nM in experiment [2]. Also, the inhibition result (with Myzus persicae; in experiment [4]) was “Active” in each case.
Consider `C/C(=N\C#N)N(C)Cc1ccc(Cl)nc1` [ACETAMIPRID], for which the IC50 in experiment [1] stood at 10 nM; in experiment [2] it was 8.3 nM.
As for `CN1CN(C)/C(=N\[N+](=O)[O-])N(Cc2cnc(Cl)s2)C1`, the IC50 in experiment [1] and in experiment [2] was above 1000 nM each time.
With `N#C/N=C1\SCCN1Cc1cnc(Cl)s1`, the figures for the IC50 in experiment [1] and in experiment [2] were 56 nM and 94 nM, respectively.
In the case of `CN1CN(C)/C(=N\[N+](=O)[O-])N(Cc2ccc(Cl)nc2)C1`, the IC50 in experiment [1] and in experiment [2] was above 1000 nM in each case.
`CN/C(=N/CC1CCOC1)N[N+](=O)[O-]` (stereo unspecified) [DINOTEFURAN] came in with an IC50 in experiment [2] of 5000 nM.
Regarding `O=[N+]([O-])/N=C1\NCCN1Cc1cnc(Cl)s1` [IMIDACLOTHIZ], the values for the IC50 in experiment [3], in experiment [1] and in experiment [2] were 12 nM, 21 nM and 17 nM, respectively.
